Assay results published in PubChem BioAssay AID2060906 (Molecular Pharmacology Branch, DTP, NCI, 2025).
Values joined by “and” are separate entries in the source; they are usually repeats but may differ in a detail not shown here. Equal values may be shown once. Values belong to the molecule of their own block, whether it stands above or below them.

Tested on: 485176-168-R4-J1-PDC complex spheroid growth
Experiment: Anticancer human tumor 485176-168-R4-J1-PDC patient-derived pancreatic adenocarcinoma cell line growth inhibition [RAS]
Settings: for viability, T/C: stronger effect = lower value
Procedure, shortened: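 Tumour cells grown as complex spheroids with HUVEC endothelial cells and mesenchymal stem cells, treated with RAS pathway inhibitor combinations. Each agent spans half-log steps from near clinical Cmax, or 10 microM where Cmax is unknown.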

[1] = curve of first compound, second compound 0.0316 µM
[2] = curve of first compound, second compound 0.1 µM
[3] = curve of first compound, second compound 0.316 µM
[4] = curve of first compound, second compound 1 µM
[5] = second compound 0.0316 µM, first compound 0.0316 µM
[6] = second compound 0.0316 µM, first compound 0.1 µM
[7] = second compound 0.0316 µM, first compound 0.316 µM
[8] = second compound 0.0316 µM, first compound 1 µM
[9] = second compound 0.1 µM, first compound 0.0316 µM
[10] = second compound 0.1 µM, first compound 0.1 µM
[11] = second compound 0.1 µM, first compound 0.316 µM
[12] = second compound 0.1 µM, first compound 1 µM
[13] = second compound 0.316 µM, first compound 0.0316 µM
[14] = second compound 0.316 µM, first compound 0.1 µM
[15] = second compound 0.316 µM, first compound 0.316 µM
[16] = second compound 0.316 µM, first compound 1 µM
[17] = second compound 1 µM, first compound 0.0316 µM
[18] = second compound 1 µM, first compound 0.1 µM
[19] = second compound 1 µM, first compound 0.316 µM
[20] = second compound 1 µM, first compound 1 µM
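Note: spheroids exposed to compounds for seven days before readout.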
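Throughout, for viability, T/C: luminescence viability expressed relative to DMSO vehicle wells set as 100%.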

Compound: CCN1CCN(Cc2ccc(Nc3ncc(F)c(-c4cc(F)c5nc(C)n(C(C)C)c5c4)n3)nc2)CC1 + C=CC(=O)N1CCN(c2nc(OCC3CCCN3C)nc3c(F)c(-c4nc(N)cc(C)c4C(F)(F)F)c(Cl)cc23)C(C)C1
IC50 (curve of first compound, second compound 0.00316 µM): > 1000 nM | IC50 (curve of first compound, second compound 0.01 µM): > 1000 nM | IC50 [1]: > 1000 nM | IC50 [2]: > 1000 nM | IC50 [3]: > 1000 nM | IC50 [4]: > 1000 nM | viability, T/C (second compound 0.00316 µM, first compound 0.00316 µM): 102% | viability, T/C (second compound 0.00316 µM, first compound 0.01 µM): 92.7% | viability, T/C (second compound 0.00316 µM, first compound 0.0316 µM): 107% | viability, T/C (second compound 0.00316 µM, first compound 0.1 µM): 88.7% | viability, T/C (second compound 0.00316 µM, first compound 0.316 µM): 69.1% | viability, T/C (second compound 0.00316 µM, first compound 1 µM): 59.7% | viability, T/C (second compound 0.01 µM, first compound 0.00316 µM): 108% | viability, T/C (second compound 0.01 µM, first compound 0.01 µM): 90.1% | viability, T/C (second compound 0.01 µM, first compound 0.0316 µM): 108% | viability, T/C (second compound 0.01 µM, first compound 0.1 µM): 80.5% | viability, T/C (second compound 0.01 µM, first compound 0.316 µM): 80.2% | viability, T/C (second compound 0.01 µM, first compound 1 µM): 77.3% | viability, T/C (second compound 0.0316 µM, first compound 0.00316 µM): 101% | viability, T/C (second compound 0.0316 µM, first compound 0.01 µM): 89.8% | viability, T/C [5]: 88.2% | viability, T/C [6]: 80.5% | viability, T/C [7]: 95.8% | viability, T/C [8]: 53.9% | viability, T/C (second compound 0.1 µM, first compound 0.00316 µM): 116% | viability, T/C (second compound 0.1 µM, first compound 0.01 µM): 102% | viability, T/C [9]: 89% | viability, T/C [10]: 93.5% | viability, T/C [11]: 83.7% | viability, T/C [12]: 68.1% | viability, T/C (second compound 0.316 µM, first compound 0.00316 µM): 107% | viability, T/C (second compound 0.316 µM, first compound 0.01 µM): 108% | viability, T/C [13]: 77.5% | viability, T/C [14]: 92% | viability, T/C [15]: 75% | viability, T/C [16]: 60.1% | viability, T/C (second compound 1 µM, first compound 0.00316 µM): 97.1% | viability, T/C (second compound 1 µM, first compound 0.01 µM): 92.6% | viability, T/C [17]: 111% | viability, T/C [18]: 87% | viability, T/C [19]: 83.9% | viability, T/C [20]: 60%

Compound: C=CC(=O)N1CCN(c2nc(OCC3CCCN3C)nc3c(F)c(-c4nc(N)cc(C)c4C(F)(F)F)c(Cl)cc23)C(C)C1 (configuration not stated)
viability, T/C (compound 0.1 µM): 98.5% [middle of 12 runs] | viability, T/C (compound 1 µM): 102% [middle of 12 runs] | IC50 (compound alone, run of 06/10/2024): > 1000 nM | IC50 (curve of compound): > 1000 nM

Continued, in another order:

IC50 [1]: > 10000 nM | IC50 [2]: > 10000 nM | IC50 [3]: > 10000 nM | IC50 [4]: > 10000 nM | IC50 (curve of first compound, second compound 3.16 µM): > 10000 nM | IC50 (curve of first compound, second compound 10 µM): > 10000 nM
Compound: Cc1nc(N2CCC3(CC2)COC(C)C3N)c(CO)nc1Sc1ccnc(N)c1Cl (configuration not stated) + C#Cc1c(F)ccc2cc(O)cc(-c3ncc4c(N5CC6CCC(C5)N6)nc(OCC56CCCN5CC(F)C6)nc4c3F)c12
viability, T/C [5]: 111% | viability, T/C [6]: 89.3% | viability, T/C [7]: 79.5% | viability, T/C [8]: 82.5% | viability, T/C (second compound 0.0316 µM, first compound 3.16 µM): 88.5% | viability, T/C (second compound 0.0316 µM, first compound 10 µM): 73.4% | viability, T/C [9]: 91.6% | viability, T/C [10]: 99.6% | viability, T/C [11]: 83.4% | viability, T/C [12]: 84.4% | viability, T/C (second compound 0.1 µM, first compound 3.16 µM): 85.6% | viability, T/C (second compound 0.1 µM, first compound 10 µM): 83% | viability, T/C [13]: 83% | viability, T/C [14]: 85.4% | viability, T/C [15]: 86.7% | viability, T/C [16]: 70.6% | viability, T/C (second compound 0.316 µM, first compound 3.16 µM): 81.8% | viability, T/C (second compound 0.316 µM, first compound 10 µM): 77.3% | viability, T/C [17]: 85.5% | viability, T/C [18]: 102% | viability, T/C [19]: 71.4% | viability, T/C [20]: 75.3% | viability, T/C (second compound 1 µM, first compound 3.16 µM): 77.7% | viability, T/C (second compound 1 µM, first compound 10 µM): 70.8% | viability, T/C (second compound 3.16 µM, first compound 0.0316 µM): 92.6% | viability, T/C (second compound 3.16 µM, first compound 0.1 µM): 98.1% | viability, T/C (second compound 3.16 µM, first compound 0.316 µM): 96.2% | viability, T/C (second compound 3.16 µM, first compound 1 µM): 75.9% | viability, T/C (second compound 3.16 µM, first compound 3.16 µM): 86.5% | viability, T/C (second compound 3.16 µM, first compound 10 µM): 64.1% | viability, T/C (second compound 10 µM, first compound 0.0316 µM): 80.4% | viability, T/C (second compound 10 µM, first compound 0.1 µM): 87.4% | viability, T/C (second compound 10 µM, first compound 0.316 µM): 87% | viability, T/C (second compound 10 µM, first compound 1 µM): 82.1% | viability, T/C (second compound 10 µM, first compound 3.16 µM): 80% | viability, T/C (second compound 10 µM, first compound 10 µM): 86.6%

IC50 (curve of first compound, second compound 0.000949 µM): > 1000 nM | IC50 (curve of first compound, second compound 0.003 µM): > 1000 nM | IC50 (curve of first compound, second compound 0.00949 µM): > 1000 nM | IC50 (curve of first compound, second compound 0.03 µM): > 1000 nM | IC50 (curve of first compound, second compound 0.0949 µM): > 1000 nM | IC50 (curve of first compound, second compound 0.3 µM): > 1000 nM
Compound: C=CC(=O)N1CCN(c2nc(OCC3CCCN3C)nc3c(F)c(-c4nc(N)cc(C)c4C(F)(F)F)c(Cl)cc23)C(C)C1 (configuration not stated) + CCn1c(-c2cccnc2C(C)OC)c2c3cc(ccc31)N1CCOC(CC(NC(=O)C(C(C)C)N(C)C(=O)C3(F)CCN(C(=O)C#CC(C)(C)N(C)C)CC3)C(=O)N3CCCC(N3)C(=O)OCC(C)(C)C2)C1
viability, T/C (second compound 0.000949 µM, first compound 0.00316 µM): 109% | viability, T/C (second compound 0.000949 µM, first compound 0.01 µM): 90.2% | viability, T/C (second compound 0.000949 µM, first compound 0.0316 µM): 108% | viability, T/C (second compound 0.000949 µM, first compound 0.1 µM): 88.8% | viability, T/C (second compound 0.000949 µM, first compound 0.316 µM): 113% | viability, T/C (second compound 0.000949 µM, first compound 1 µM): 89.4% | viability, T/C (second compound 0.003 µM, first compound 0.00316 µM): 94.2% | viability, T/C (second compound 0.003 µM, first compound 0.01 µM): 94.5% | viability, T/C (second compound 0.003 µM, first compound 0.0316 µM): 96.2% | viability, T/C (second compound 0.003 µM, first compound 0.1 µM): 93.4% | viability, T/C (second compound 0.003 µM, first compound 0.316 µM): 115% | viability, T/C (second compound 0.003 µM, first compound 1 µM): 105% | viability, T/C (second compound 0.00949 µM, first compound 0.00316 µM): 92.2% | viability, T/C (second compound 0.00949 µM, first compound 0.01 µM): 93.6% | viability, T/C (second compound 0.00949 µM, first compound 0.0316 µM): 96.9% | viability, T/C (second compound 0.00949 µM, first compound 0.1 µM): 94.4% | viability, T/C (second compound 0.00949 µM, first compound 0.316 µM): 105% | viability, T/C (second compound 0.00949 µM, first compound 1 µM): 108% | viability, T/C (second compound 0.03 µM, first compound 0.00316 µM): 98.5% | viability, T/C (second compound 0.03 µM, first compound 0.01 µM): 105% | viability, T/C (second compound 0.03 µM, first compound 0.0316 µM): 101% | viability, T/C (second compound 0.03 µM, first compound 0.1 µM): 111% | viability, T/C (second compound 0.03 µM, first compound 0.316 µM): 117% | viability, T/C (second compound 0.03 µM, first compound 1 µM): 85.8% | viability, T/C (second compound 0.0949 µM, first compound 0.00316 µM): 88.2% | viability, T/C (second compound 0.0949 µM, first compound 0.01 µM): 83.7% | viability, T/C (second compound 0.0949 µM, first compound 0.0316 µM): 101% | viability, T/C (second compound 0.0949 µM, first compound 0.1 µM): 95.1% | viability, T/C (second compound 0.0949 µM, first compound 0.316 µM): 115% | viability, T/C (second compound 0.0949 µM, first compound 1 µM): 92.2% | viability, T/C (second compound 0.3 µM, first compound 0.00316 µM): 74.2% | viability, T/C (second compound 0.3 µM, first compound 0.01 µM): 74.1% | viability, T/C (second compound 0.3 µM, first compound 0.0316 µM): 79.6% | viability, T/C (second compound 0.3 µM, first compound 0.1 µM): 82% | viability, T/C (second compound 0.3 µM, first compound 0.316 µM): 94.4% | viability, T/C (second compound 0.3 µM, first compound 1 µM): 80.8%

IC50 (curve of compound): > 10000 nM
Compound: Cc1nc(N2CCC3(CC2)COC(C)C3N)c(CO)nc1Sc1ccnc(N)c1Cl (configuration not stated)
viability, T/C (compound 0.0316 µM): 102% [middle of 4 runs] | viability, T/C (compound 0.1 µM): 86.5% [middle of 4 runs] | viability, T/C (compound 0.316 µM): 82.8% [middle of 4 runs] | viability, T/C (compound 1 µM): 74.3% [middle of 4 runs] | viability, T/C (compound 3.16 µM): 84.5% [middle of 4 runs] | viability, T/C (compound 10 µM): 63.4% (2×) and 81.9% and 74.9%
